This data set relates to ScGT1 cells. To be noted: for cells remained viable: mouse.

Two substances from patent publication US20120149697A1 (priority 2009, published 2012) can be followed below.

Take humic acids [HA]: the “cell viability (cytotoxicity effect)” value is given as “remain viable” and the cells remained viable is reported as 96%.
On to fulvic acids [FA], for which the “cell viability (cytotoxicity effect)” value is reported as “remain viable” and the cells remained viable was found to be 94%.
